Laboratory results taken from patent US11840686B2, “Modulation of prekallikrein (PKK) expression” (Ionis Pharmaceuticals, Inc., priority 2013, dated 2023).
Strand notation (5' to 3'): a small letter for the sugar, then the base; units joined by * are phosphorothioate-linked, units joined directly phosphodiester-linked; [ ] holds rarer units or linkages, { } end groups; capitals alone tell only the bases. e = 2'-O-(2-methoxyethyl) (MOE); k = constrained ethyl (cEt); [5mC] = 5-methylcytosine; d = 2'-deoxy (DNA)

Test system: human PKK mRNA
Experiment: Antisense inhibition of human PKK mRNA in HepaRG cells, 1,000 nM, MOE/deoxy/cEt oligonucleotides (Example 3)
Type: cell-based
In short: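 Readout is percent PKK mRNA reduction against untreated controls, by real-time PCR (RTS3454) adjusted for total RNA via RIBOGREEN. Oligonucleotides, phosphorothioate gapmers of 16 nucleosides with cEt, MOE and deoxy sugars, were delivered at 1,000 nM by electroporation to 20,000 HepaRG cells/well for roughly 24 h.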

[1] = HepaRG cells, electroporation with 1,000 nM antisense oligonucleotide, approximately 24 hours, primer probe set RTS3454, relative to untreated control cells, experiment of Table 23
[2] = Table 30, human PKK mRNA, HepaRG cells, 1,000 nM antisense oligonucleotide
[3] = Table 28, HepaRG cells, 1,000 nM antisense oligonucleotide, human PKK mRNA
[4] = Table 27, HepaRG cells, 1,000 nM antisense oligonucleotide, human PKK mRNA
[5] = Table 19, HepaRG cells, electroporation with 1,000 nM antisense oligonucleotide, approximately 24 hours, PKK mRNA by RT-PCR (RTS3454), relative to untreated control cells
[6] = Table 20, HepaRG cells, electroporation with 1,000 nM antisense oligonucleotide, approximately 24 hours, PKK mRNA by RT-PCR (RTS3454), relative to untreated control cells
[7] = Table 22 experiment, HepaRG cells, electroporation with 1,000 nM antisense oligonucleotide, approx. 24 hours, PKK mRNA by RT-PCR (RTS3454), relative to untreated control cells
[8] = HepaRG cells, electroporation with 1,000 nM antisense oligonucleotide, approx. 24 hours, PKK mRNA by RT-PCR (RTS3454), relative to untreated control cells, Table 26 experiment
[9] = PKK mRNA, HepaRG cells, 1,000 nM antisense oligonucleotide, Table 31
[10] = HepaRG cells, 1,000 nM antisense oligonucleotide, Table 29

547933 (eT*e[5mC]*kG*dA*dT*dT*dT*dT*d[5mC]*d[5mC]*dA*dT*dA*k[5mC]*kA*eT; antisense) [compound 547933]
% inhibition [1]: 44%

548421 (antisense e[5mC]*eA*k[5mC]*dT*dG*dT*d[5mC]*d[5mC]*dT*dA*dT*dA*dT*k[5mC]*kA*e[5mC]) [compound 548421]
% inhibition [2]: 56%

548523 (antisense eG*eG*kT*dA*dA*dA*dT*d[5mC]*d[5mC]*dA*dT*d[5mC]*d[5mC]*k[5mC]*k[5mC]*eT) [compound 548523]
% inhibition [3]: 44%

548430 (antisense e[5mC]*e[5mC]*kT*dA*dT*dA*dA*d[5mC]*dT*dA*dT*dA*dA*k[5mC]*kA*eG) [compound 548430]
% inhibition [2]: 21%

547784 (antisense eG*e[5mC]*kT*dT*dG*dA*dA*dT*dA*dA*dA*dA*dT*k[5mC]*kA*eT) [compound 547784]
% inhibition (Table 21 experiment, HepaRG cells, electroporation with 1,000 nM antisense oligonucleotide, approx. 24 hours, PKK mRNA by RT-PCR (RTS3454), relative to untreated control cells): 46%

548305 (eG*eT*kT*d[5mC]*dT*dT*dG*d[5mC]*dT*dT*dA*dT*d[5mC]*k[5mC]*kT*e[5mC]; antisense) [compound 548305]
% inhibition [4]: 55%

548099 (antisense e[5mC]*eT*k[5mC]*dA*dG*d[5mC]*dG*dA*d[5mC]*dT*dT*dT*dG*kG*kT*eG) [compound 548099]
% inhibition [5]: 55%

548483 (e[5mC]*eT*kA*d[5mC]*dA*dG*dA*dT*d[5mC]*dA*dT*d[5mC]*d[5mC]*k[5mC]*kT*eA; antisense) [compound 548483]
% inhibition [3]: 5%

547854 (antisense eA*eT*k[5mC]*dA*dA*d[5mC]*dT*d[5mC]*d[5mC]*dT*dT*dT*dA*kT*kA*eA) [compound 547854]
% inhibition [6]: 10% | % inhibition [7]: 9%

547945 (eA*eA*k[5mC]*dT*dT*dG*dG*dT*dG*dT*dG*d[5mC]*d[5mC]*kA*k[5mC]*eT; antisense) [compound 547945]
% inhibition [1]: 62%

547941 (eG*eT*kG*dT*dG*d[5mC]*d[5mC]*dA*d[5mC]*dT*dT*dT*d[5mC]*kA*kG*eA; antisense) [compound 547941]
% inhibition [1]: 66%

548292 (eA*eG*kG*dA*d[5mC]*dA*d[5mC]*dT*dG*dT*dT*dT*d[5mC]*k[5mC]*kA*eG; antisense) [compound 548292]
% inhibition [8]: 38%

547863 (antisense eT*eG*kA*d[5mC]*dT*d[5mC]*d[5mC]*dT*d[5mC]*dT*d[5mC]*dA*dT*kA*kT*e[5mC]) [compound 547863]
% inhibition [6]: 73% | % inhibition [7]: 77%

548102 (antisense eG*eT*kA*d[5mC]*dT*d[5mC]*dA*dG*d[5mC]*dG*dA*d[5mC]*dT*kT*kT*eG) [compound 548102]
% inhibition [5]: 58%

547954 (eT*eA*kA*dA*dA*dG*dG*d[5mC]*dT*dA*dT*dA*dT*k[5mC]*k[5mC]*eA; antisense) [compound 547954]
% inhibition [1]: 36%

548682 (antisense eG*eT*kA*dT*d[5mC]*d[5mC]*d[5mC]*d[5mC]*dT*dT*dT*dT*d[5mC]*kT*kA*eT) [compound 548682]
% inhibition [9]: 0%

548619 (antisense eG*eG*kT*dT*dG*dG*dT*dG*dG*d[5mC]*dG*dG*dG*kA*kT*e[5mC]) [compound 548619]
% inhibition [9]: 19%

547890 (eT*eT*kG*dT*dT*d[5mC]*d[5mC]*dG*dG*dT*dA*d[5mC]*dT*k[5mC]*kT*eG; antisense) [compound 547890]
% inhibition [6]: 97% | % inhibition [7]: 90%

548408 (antisense eT*eA*kT*d[5mC]*dA*d[5mC]*dT*dG*dT*dA*d[5mC]*dT*dA*kG*kT*eT) [compound 548408]
% inhibition [2]: 47%

548681 (antisense eG*eA*kT*dA*dT*d[5mC]*dA*dT*d[5mC]*dA*dT*d[5mC]*d[5mC]*k[5mC]*kA*eA) [compound 548681]
% inhibition [9]: 22%

548603 (eG*eA*kG*dA*dT*dT*dG*dG*dT*dG*dG*dT*dG*kG*kG*eT; antisense) [compound 548603]
% inhibition [10]: 35%

548595 (eG*eG*kA*dT*dG*dA*dG*dA*dT*dG*d[5mC]*dA*dT*k[5mC]*k[5mC]*eA; antisense) [compound 548595]
% inhibition [10]: 8%

548269 (antisense eA*eG*k[5mC]*dA*d[5mC]*dA*d[5mC]*dA*dA*dT*dT*dA*d[5mC]*kT*kG*eG) [compound 548269]
% inhibition [8]: 62%

547883 (eA*e[5mC]*kT*dG*dG*d[5mC]*dA*dG*d[5mC]*dG*dA*dA*dT*kG*kT*eT; antisense) [compound 547883]
% inhibition [6]: 99% | % inhibition [7]: 0%

547970 (antisense e[5mC]*eT*k[5mC]*d[5mC]*d[5mC]*dG*dG*dG*dT*dA*dA*dA*dT*kT*kT*eT) [compound 547970]
% inhibition [1]: 42%

548517 (antisense e[5mC]*eG*kG*dA*d[5mC]*dA*dA*dG*d[5mC]*d[5mC]*dT*dT*dA*k[5mC]*kA*eG) [compound 548517]
% inhibition [3]: 43%

548617 (antisense eG*eA*kT*dT*dG*dG*dT*dG*dG*d[5mC]*dG*dG*dG*kA*kT*e[5mC]) [compound 548617]
% inhibition [9]: 44%

548008 (eT*e[5mC]*kT*d[5mC]*dA*dA*dA*dG*dA*dG*dT*dA*dA*k[5mC]*k[5mC]*eA; antisense) [compound 548008]
% inhibition (HepaRG cells, electroporation with 1,000 nM antisense oligonucleotide, approximately 24 hours, primer probe set RTS3454, relative to untreated control cells, experiment of Table 24): 71%

548127 (eT*eT*kG*d[5mC]*d[5mC]*dT*dA*dG*dA*d[5mC]*dT*d[5mC]*dT*kG*kG*eA; antisense) [compound 548127]
% inhibition [5]: 60%

547866 (antisense eT*eT*kA*dA*dA*dA*dT*dT*dG*dA*d[5mC]*dT*d[5mC]*k[5mC]*kT*e[5mC]) [compound 547866]
% inhibition [6]: 46% | % inhibition [7]: 40%

548498 (antisense e[5mC]*e[5mC]*kG*dA*dT*dA*dA*d[5mC]*dA*dG*dA*d[5mC]*d[5mC]*kG*kG*e[5mC]) [compound 548498]
% inhibition [3]: 71%

547868 (antisense eA*e[5mC]*k[5mC]*dT*dT*dA*dG*dA*d[5mC]*dA*d[5mC]*dA*dT*kT*kA*eA) [compound 547868]
% inhibition [6]: 47% | % inhibition [7]: 71%

548376 (eG*e[5mC]*k[5mC]*dT*dT*dT*dG*dA*d[5mC]*d[5mC]*dT*dT*dT*k[5mC]*kG*e[5mC]; antisense) [compound 548376]
% inhibition [4]: 65%

548453 (eT*eA*k[5mC]*d[5mC]*dT*dA*dT*dA*dA*d[5mC]*dA*dG*dT*kA*kT*e[5mC]; antisense) [compound 548453]
% inhibition [2]: 12%

548230 (eT*eA*k[5mC]*dT*d[5mC]*dA*dT*dT*dG*dT*dT*dG*dT*kG*kT*eG; antisense) [compound 548230]
% inhibition [8]: 10%

548407 (e[5mC]*e[5mC]*kT*dA*dT*dA*dA*d[5mC]*dT*dG*d[5mC]*dT*dG*k[5mC]*kT*e[5mC]; antisense) [compound 548407]
% inhibition [2]: 24%
